Results as given in US9918915B2, “Personal care compositions providing enhanced cooling sensation” (THE PROCTER & GAMBLE COMPANY, priority 2007, dated 2018).

What was measured:
panelists = experiment: Sensory evaluation of cooling sensation after brushing with coolant dentifrice followed by aqueous rinse with or without calcium; type: in vivo, human; parameters: key to Cooling Sensation Score: 0 = no cooling, 60 = intense cooling; 7.5 = definite cooling; details: for Cooling Sensation Score: 0-60 scale
Method: Sensory evaluation studies of coolant activity were conducted using a methodology patterned after the techniques described in M. C. Meilgaard, et al., Sensory Evaluation Techniques, 4th Ed. (2007). In one study, a panel of 11 trained sensory experts evaluated cooling sensation experienced after brushing with a dentifrice containing coolant(s) followed by rinsing with an aqueous rinse containing a calcium ion source. Panelists brushed teeth with 1.5 grams of a test dentifrice (containing coolant) or control (no coolant) and then expectorated. After brush expectoration, panelists evaluated cooling intensity, assigning a number between 0 (no cooling) to 60 (intense cooling). Panelists then rinsed mouth with 15 ml. of an aqueous rinse (with or without calcium) and expectorated. After rinse expectoration, panelists evaluated cooling intensity according to the same 0 to 60 scale. Evaluations were conducted at 5, 15, 30, 45, 60 minute, etc. time points. At each evaluation, panelists were instructed to breathe in through pursed lips and evaluate overall cooling sensation. In this test, a numerical score of 7.5 indicates meaningful or definite cooling.

human TRPM8 = human TRPM8 (Homo sapiens, UniProt Q7Z2W7); experiment: FLIPR intracellular calcium flux (Fluo-4) in HEK cells stably transfected with human TRPM8
Chain of human TRPM8 (Q7Z2W7 whole entry): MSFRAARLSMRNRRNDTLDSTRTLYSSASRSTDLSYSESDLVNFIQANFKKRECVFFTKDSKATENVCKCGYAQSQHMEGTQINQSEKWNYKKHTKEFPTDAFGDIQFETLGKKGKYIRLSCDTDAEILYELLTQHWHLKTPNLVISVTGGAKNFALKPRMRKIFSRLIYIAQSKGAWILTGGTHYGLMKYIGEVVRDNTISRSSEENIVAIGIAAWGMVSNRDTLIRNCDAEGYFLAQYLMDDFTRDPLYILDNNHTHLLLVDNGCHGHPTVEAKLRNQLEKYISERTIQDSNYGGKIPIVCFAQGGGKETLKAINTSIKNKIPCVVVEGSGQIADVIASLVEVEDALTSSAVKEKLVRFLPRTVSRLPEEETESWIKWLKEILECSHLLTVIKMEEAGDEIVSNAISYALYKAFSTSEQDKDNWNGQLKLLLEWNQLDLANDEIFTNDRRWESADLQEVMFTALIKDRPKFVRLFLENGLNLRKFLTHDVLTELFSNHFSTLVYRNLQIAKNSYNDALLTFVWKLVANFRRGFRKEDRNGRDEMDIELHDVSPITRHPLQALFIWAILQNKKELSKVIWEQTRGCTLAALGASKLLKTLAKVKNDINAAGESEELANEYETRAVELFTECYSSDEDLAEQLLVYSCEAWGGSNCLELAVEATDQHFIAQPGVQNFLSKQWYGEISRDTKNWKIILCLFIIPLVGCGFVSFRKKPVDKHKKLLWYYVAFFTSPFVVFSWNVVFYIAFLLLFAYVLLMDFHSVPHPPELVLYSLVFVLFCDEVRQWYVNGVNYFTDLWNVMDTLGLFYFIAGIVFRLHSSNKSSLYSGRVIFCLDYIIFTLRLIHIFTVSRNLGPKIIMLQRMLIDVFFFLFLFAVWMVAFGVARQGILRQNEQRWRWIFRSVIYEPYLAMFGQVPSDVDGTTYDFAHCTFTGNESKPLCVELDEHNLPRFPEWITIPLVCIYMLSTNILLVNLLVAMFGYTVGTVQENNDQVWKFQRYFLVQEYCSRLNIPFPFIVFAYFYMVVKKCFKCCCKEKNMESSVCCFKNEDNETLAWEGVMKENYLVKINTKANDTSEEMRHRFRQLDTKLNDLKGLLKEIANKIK

[1] = 1500 ppm coolant in paste, rinse Ca+2 0 ppm, 0 min.
[2] = 1500 ppm coolant in paste, rinse Ca+2 0 ppm, 5 min.
[3] = 1500 ppm coolant in paste, rinse Ca+2 0 ppm, 15 min.
[4] = 1500 ppm coolant in paste, rinse Ca+2 0 ppm, 30 min.
[5] = 1500 ppm coolant in paste, rinse Ca+2 0 ppm, 45 min.
[6] = 1500 ppm coolant in paste, rinse Ca+2 0 ppm, 60 min.
[7] = 1000 ppm coolant in paste, rinse Ca+2 0 ppm, 0 min.
[8] = 1000 ppm coolant in paste, rinse Ca+2 0 ppm, 5 min.
[9] = 1000 ppm coolant in paste, rinse Ca+2 0 ppm, 15 min.
[10] = 1000 ppm coolant in paste, rinse Ca+2 0 ppm, 30 min.
[11] = 1000 ppm coolant in paste, rinse Ca+2 0 ppm, 45 min.
[12] = 1000 ppm coolant in paste, rinse Ca+2 0 ppm, 60 min.
[13] = 800 ppm coolant in paste, rinse Ca+2 0 ppm, 0 min.
[14] = 800 ppm coolant in paste, rinse Ca+2 0 ppm, 5 min.
[15] = 800 ppm coolant in paste, rinse Ca+2 0 ppm, 15 min.
[16] = 800 ppm coolant in paste, rinse Ca+2 0 ppm, 30 min.
[17] = 800 ppm coolant in paste, rinse Ca+2 0 ppm, 45 min.
[18] = 800 ppm coolant in paste, rinse Ca+2 0 ppm, 60 min.
[19] = 800 ppm coolant in paste, rinse Ca+2 723 ppm, 0 min.
[20] = 800 ppm coolant in paste, rinse Ca+2 723 ppm, 5 min.
[21] = 800 ppm coolant in paste, rinse Ca+2 723 ppm, 15 min.
[22] = 800 ppm coolant in paste, rinse Ca+2 723 ppm, 30 min.
[23] = 800 ppm coolant in paste, rinse Ca+2 723 ppm, 45 min.
[24] = 800 ppm coolant in paste, rinse Ca+2 723 ppm, 60 min.

## CC(C)[C@@H]1CC[C@@H](C)CC12OCC(CO)O2 (stereo partly shown) [MGA, menthone glycerol acetal]
panelists; [1]
  Cooling Sensation Score: 16.5
panelists; [2]
  Cooling Sensation Score: 13.6
panelists; [3]
  Cooling Sensation Score: 4.4
panelists; [4]
  Cooling Sensation Score: 0
panelists; [5]
  Cooling Sensation Score: 0
panelists; [6]
  Cooling Sensation Score: 0
panelists; 1500 ppm coolant in paste, rinse Ca+2 723 ppm, 0 min.
  Cooling Sensation Score: 20.7
panelists; 1500 ppm coolant in paste, rinse Ca+2 723 ppm, 5 min.
  Cooling Sensation Score: 18.3
panelists; 1500 ppm coolant in paste, rinse Ca+2 723 ppm, 15 min.
  Cooling Sensation Score: 7.0
panelists; 1500 ppm coolant in paste, rinse Ca+2 723 ppm, 30 min.
  Cooling Sensation Score: 1.4
panelists; 1500 ppm coolant in paste, rinse Ca+2 723 ppm, 45 min.
  Cooling Sensation Score: 0
panelists; 1500 ppm coolant in paste, rinse Ca+2 723 ppm, 60 min.
  Cooling Sensation Score: 0
panelists; 1500 ppm level of coolant in dentifrice
  Calcium enhancing effect on cooling: calcium enhancing effect was also observed
panelists; at the levels of coolant and calcium used
  Potentiating effect of calcium ions on cooling intensity and duration: particularly evident

## CC1CCC(C(C)C)C(OC(=O)C(C)O)C1 (stereo not shown) [Menthyl Lactate, menthyl lactate]
panelists; [7]
  Cooling Sensation Score: 23.0
panelists; [8]
  Cooling Sensation Score: 12.7
panelists; [9]
  Cooling Sensation Score: 2.3
panelists; [10]
  Cooling Sensation Score: 0
panelists; [11]
  Cooling Sensation Score: 0
panelists; [12]
  Cooling Sensation Score: 0
panelists; 1000 ppm coolant in paste, rinse Ca+2 723 ppm, 0 min.
  Cooling Sensation Score: 23.5
panelists; 1000 ppm coolant in paste, rinse Ca+2 723 ppm, 5 min.
  Cooling Sensation Score: 12.4
panelists; 1000 ppm coolant in paste, rinse Ca+2 723 ppm, 15 min.
  Cooling Sensation Score: 2.2
panelists; 1000 ppm coolant in paste, rinse Ca+2 723 ppm, 30 min.
  Cooling Sensation Score: 0
panelists; 1000 ppm coolant in paste, rinse Ca+2 723 ppm, 45 min.
  Cooling Sensation Score: 0
panelists; 1000 ppm coolant in paste, rinse Ca+2 723 ppm, 60 min.
  Cooling Sensation Score: 0

## O=P([O-])([O-])OP(=O)([O-])OP(=O)([O-])[O-].[Na+].[Na+].[Na+].[Na+].[Na+] [Penta sodium triphosphate]
Human TRPM8; pre-treatment with 100 uM test compound + 6.25 uM G-180 vs 6.25 uM G-180 alone, calcium fluorescence
  % Change from G-180 value: 0.66%
Human TRPM8; pre-treatment with 100 uM test compound for 30 minutes, then 6.25 uM G-180, HEK cells with human TRPM8, Fluo-4
  Average Fluorescence (n = 3): 17628.02

## CCNC(=O)C1CC(C)CCC1C(C)C (stereo not shown) [WS-3, N-ethyl-ρ-menthan-3-carboxamide]
panelists; [7]
  Cooling Sensation Score: 26.2
panelists; [8]
  Cooling Sensation Score: 25.4
panelists; [9]
  Cooling Sensation Score: 11.3
panelists; [10]
  Cooling Sensation Score: 0
panelists; [11]
  Cooling Sensation Score: 0
panelists; [12]
  Cooling Sensation Score: 0
panelists; 1000 ppm coolant in paste, rinse Ca+2 271 ppm, 0 min.
  Cooling Sensation Score: 23.8
panelists; 1000 ppm coolant in paste, rinse Ca+2 271 ppm, 5 min.
  Cooling Sensation Score: 21.4
panelists; 1000 ppm coolant in paste, rinse Ca+2 271 ppm, 15 min.
  Cooling Sensation Score: 10.8
panelists; 1000 ppm coolant in paste, rinse Ca+2 271 ppm, 30 min.
  Cooling Sensation Score: 2.4
panelists; 1000 ppm coolant in paste, rinse Ca+2 271 ppm, 45 min.
  Cooling Sensation Score: 0
panelists; 1000 ppm coolant in paste, rinse Ca+2 271 ppm, 60 min.
  Cooling Sensation Score: 0
panelists; 1000 ppm coolant in paste, rinse Ca+2 542 ppm, 0 min.
  Cooling Sensation Score: 23.6
panelists; 1000 ppm coolant in paste, rinse Ca+2 542 ppm, 5 min.
  Cooling Sensation Score: 14.0
panelists; 1000 ppm coolant in paste, rinse Ca+2 542 ppm, 15 min.
  Cooling Sensation Score: 0
panelists; 1000 ppm coolant in paste, rinse Ca+2 542 ppm, 30 min.
  Cooling Sensation Score: 0
panelists; 1000 ppm coolant in paste, rinse Ca+2 542 ppm, 45 min.
  Cooling Sensation Score: 0
panelists; 1000 ppm coolant in paste, rinse Ca+2 542 ppm, 60 min.
  Cooling Sensation Score: 0
panelists; [1]
  Cooling Sensation Score: 18.1
panelists; [2]
  Cooling Sensation Score: 29.4
panelists; [3]
  Cooling Sensation Score: 12.7
panelists; [4]
  Cooling Sensation Score: 0
panelists; [5]
  Cooling Sensation Score: 0
panelists; [6]
  Cooling Sensation Score: 0
panelists; 1500 ppm coolant in paste, rinse Ca+2 271 ppm, 0 min.
  Cooling Sensation Score: 20.0
panelists; 1500 ppm coolant in paste, rinse Ca+2 271 ppm, 5 min.
  Cooling Sensation Score: 29.8
panelists; 1500 ppm coolant in paste, rinse Ca+2 271 ppm, 15 min.
  Cooling Sensation Score: 9.5
panelists; 1500 ppm coolant in paste, rinse Ca+2 271 ppm, 30 min.
  Cooling Sensation Score: 1.1
panelists; 1500 ppm coolant in paste, rinse Ca+2 271 ppm, 45 min.
  Cooling Sensation Score: 0
panelists; 1500 ppm coolant in paste, rinse Ca+2 271 ppm, 60 min.
  Cooling Sensation Score: 0
panelists; 1500 ppm coolant in paste, rinse Ca+2 542 ppm, 0 min.
  Cooling Sensation Score: 19.3
panelists; 1500 ppm coolant in paste, rinse Ca+2 542 ppm, 5 min.
  Cooling Sensation Score: 23.7
panelists; 1500 ppm coolant in paste, rinse Ca+2 542 ppm, 15 min.
  Cooling Sensation Score: 5.0
panelists; 1500 ppm coolant in paste, rinse Ca+2 542 ppm, 30 min.
  Cooling Sensation Score: 2.7
panelists; 1500 ppm coolant in paste, rinse Ca+2 542 ppm, 45 min.
  Cooling Sensation Score: 0
panelists; 1500 ppm coolant in paste, rinse Ca+2 542 ppm, 60 min.
  Cooling Sensation Score: 0

## CCOC(=O)CNC(=O)C1CC(C)CCC1C(C)C (stereo not shown) [WS-5, N-ethoxycarbonylmethyl-ρ-menthan-3-carboxamide]
panelists; [13]
  Cooling Sensation Score: 29.2
panelists; [14]
  Cooling Sensation Score: 22.4
panelists; [15]
  Cooling Sensation Score: 8.3
panelists; [16]
  Cooling Sensation Score: 1.0
panelists; [17]
  Cooling Sensation Score: 0
panelists; [18]
  Cooling Sensation Score: 0
panelists; [19]
  Cooling Sensation Score: 30.8
panelists; [20]
  Cooling Sensation Score: 22.2
panelists; [21]
  Cooling Sensation Score: 8.4
panelists; [22]
  Cooling Sensation Score: 2.2
panelists; [23]
  Cooling Sensation Score: 0
panelists; [24]
  Cooling Sensation Score: 0

## CNC(=O)C(C)(C(C)C)C(C)C [WS-23, N,2,3-trimethyl-2-isopropylbutanamide]
panelists; [13]
  Cooling Sensation Score: 15.4
panelists; [14]
  Cooling Sensation Score: 7.4
panelists; [15]
  Cooling Sensation Score: 3.0
panelists; [16]
  Cooling Sensation Score: 0
panelists; [17]
  Cooling Sensation Score: 0
panelists; [18]
  Cooling Sensation Score: 0
panelists; [19]
  Cooling Sensation Score: 18.8
panelists; [20]
  Cooling Sensation Score: 4.9
panelists; [21]
  Cooling Sensation Score: 1.0
panelists; [22]
  Cooling Sensation Score: 0
panelists; [23]
  Cooling Sensation Score: 0
panelists; [24]
  Cooling Sensation Score: 0
